Where two headings read alike, the source gives them in different places.

One test concerns A549. Kind of test: Cell-based assay, anti-proliferative activity (Cell Counting Kit-8, 72 hours). As to conditions: Homo sapiens, read-out: IC50 (μM) A549. Put shortly:
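Following seeding into 96-well microtiter plates, the cells receive candidate inhibitors, and cellular growth is quantified at the end of the exposure period. An IC50 is computed for each compound.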
In general terms: Formazan colour is commonly taken as a measure of viable cells.

A further test deals with CCD-18Co. The test is described as above. The note with it: Homo sapiens, read-out: IC50 (μM) CCD-18Co. Put shortly: (§1)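 Cells seeded at 2,000–3,000 per well and exposed 72 h to compound at 0–100 micro-M (2-fold series). Growth measured with CCK-8; IC50 taken as anti-proliferative indicator.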
Another test relates to HFL1. Described as above. The note with it: Homo sapiens, read-out: IC50 (μM) HFL1. In outline: as §1
The subject of the next test is HCT-116. The description is as above. The note with it: Homo sapiens, read-out: IC50 (μM) HCT-116. In outline: as §1
The test system of a further test is PC14. The test is described as above. As to conditions: Homo sapiens, read-out: IC50 (μM) PC14. In outline:
as §1

The next test concerns the target SUV39H2 (Homo sapiens (Human), UniProt Q9H5I1). As to conditions: read-out: IC50 (μM) Suv 39H2 assay; enzyme assay.
Setting [1] is: A549 cells, Cell Counting Kit-8, 72 hours.
Setting [2] is: CCD-18Co cells, Cell Counting Kit-8, 72 hours.
Where [3] appears, read: HFL1 cells, Cell Counting Kit-8, 72 hours.
Setting [4] is: HCT-116 cells, Cell Counting Kit-8, 72 hours.
[5] abbreviates: PC-14, PC14 cells, Cell Counting Kit-8, 72 hours.
Setting [6] is: A549 cells, 72 hours, Cell Counting Kit-8.
[7] abbreviates: CCD-18Co cells, 72 hours, Cell Counting Kit-8.
Setting [8] is: HFL1 cells, 72 hours, Cell Counting Kit-8.
Where [9] appears, read: HCT-116 cells, 72 hours, Cell Counting Kit-8.
Setting [10] is: PC-14, PC14 cells, 72 hours, Cell Counting Kit-8.

SUV39H2, sequence (Q9H5I1 whole entry): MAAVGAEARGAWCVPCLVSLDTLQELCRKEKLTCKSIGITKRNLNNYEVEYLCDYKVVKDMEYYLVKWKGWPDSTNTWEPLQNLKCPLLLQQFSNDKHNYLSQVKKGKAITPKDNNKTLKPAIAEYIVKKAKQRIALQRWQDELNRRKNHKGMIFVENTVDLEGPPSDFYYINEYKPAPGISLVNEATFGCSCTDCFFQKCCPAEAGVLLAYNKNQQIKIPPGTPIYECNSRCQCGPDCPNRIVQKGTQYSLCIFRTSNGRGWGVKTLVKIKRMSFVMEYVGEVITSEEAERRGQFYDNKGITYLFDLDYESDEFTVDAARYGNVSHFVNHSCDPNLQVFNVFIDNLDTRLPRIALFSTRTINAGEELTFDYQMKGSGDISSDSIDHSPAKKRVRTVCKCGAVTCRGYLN

By IC50 is commonly meant the concentration at which inhibition is half-maximal. In the case of `COc1cc(OC)c(-c2cn3cc(NCCN)c(N4CCOCC4)c(F)c3n2)cc1Cl` [Example 208, N^1-(2-(5-chloro-2,4-dimethoxyphenyl)-8-fluoro-7-morpholinoimidazo-[1,2-a]pyridine-6-yl)ethane-1,2-diamine], the IC50 came to 10 µM in the test on A549 (setting [1]); 5.9 µM in the test on CCD-18Co (setting [2]); 8.4 µM in the test with HFL1 (setting [3]); 10 µM in the test on HCT-116 (setting [4]); 8.4 µM in the test on PC14 (setting [5]); 0.0291 µM on SUV39H2.
Turning to `COc1cc(OCCCN(C)C)c(-c2cn3ccc(N4CCCNCC4)cc3n2)cc1Cl` [Example 209, 3-{2-[7-(1,4-diazepan-1-yl)imidazo[1,2-a]pyridin-2-yl]-4-chloro-5-methoxyphenoxy}-N,N-dimethylpropan-1-amine], the half-maximal inhibitory concentration (IC50) with A549 (setting [1]) was determined as 3 µM; with CCD-18Co (setting [2]), 3.2 µM; in the test with HFL1 (setting [3]), 1.2 µM; with HCT-116 (setting [4]) it was 3.7 µM; in the test with PC14 (setting [5]), 2.7 µM; on SUV39H2 it was 0.00207 µM.
On to `CCOP(=O)(CCN1CCCN(c2ccn3cc(-c4cc(Cl)c(OC)cc4OC)nc3c2)CC1)OCC` [Example 210, diethyl (2-(4-(2-(5-chloro-2,4-dimethoxyphenyl)imidazo[1,2-a]pyridin-7-yl)-1,4-diazepan-1-yl)ethyl)phosphonate], for which the IC50 in the test with A549 (setting [1]) came out at 10 µM; with CCD-18Co (setting [2]), 5.5 µM; in the test on HFL1 (setting [3]), 7.2 µM; in the test on HCT-116 (setting [4]), 10 µM; in the test with PC14 (setting [5]), 4.5 µM; at SUV39H2, 0.0029 µM.
As to `COc1cc(OCCCN(C)C)c(-c2cn3ccc(N4CCCN(C(=O)OC(C)(C)C)CC4)cc3n2)cc1Cl` [Example 211, tert-butyl 4-(2-{5-chloro-2-[3-(dimethylamino)propoxy]-4-methoxyphenyl}imidazo[1,2-a]pyridin-7-yl)-1,4-diazepane-1-carboxylate], the IC50 with A549 (setting [1]) was determined as 2.9 µM; in the test on CCD-18Co (setting [2]), 1.4 µM; in the test on HFL1 (setting [3]), 1.4 µM; in the test with HCT-116 (setting [4]), 2.4 µM; in the test on PC14 (setting [5]) it was 0.8 µM; at SUV39H2, 0.0563 µM.
On to `COc1cc(OCCCN(C)C)c(-c2cn3ccc(N4CCCN(S(=O)(=O)C5CC5)CC4)cc3n2)cc1Cl` [Example 212, 3-(4-chloro-2-(7-(4-(cyclopropylsulfonyl)-1,4-diazepan-1-yl)imidazo[1,2-a]-pyridin-2-yl)-5-methoxyphenoxy)-N,N-dimethylpropan-1-amine], for which the half-maximal inhibitory concentration (IC50) in the test on A549 (setting [1]) amounted to 8.1 µM; in the test on CCD-18Co (setting [2]), 6 µM; in the test on HFL1 (setting [3]), 5.8 µM; with HCT-116 (setting [4]), 8.6 µM; in the test with PC14 (setting [5]), 4.2 µM; at SUV39H2 it was 0.0161 µM.
On to `COc1cc(OCCCN(C)C)c(-c2cn3ccc(N4CCCN(S(C)(=O)=O)CC4)cc3n2)cc1Cl` [Example 213, 3-(4-chloro-2-(7-(4-(methylsulfonyl)-1,4-diazepan-1-yl)imidazo-[1,2-a]pyridin-2-yl)-5-methoxyphenoxy)-N,N-dimethylpropan-1-amine], for which the IC50 in the test on A549 (setting [6]) stood at 10 µM; with CCD-18Co (setting [7]), 10 µM; in the test on HFL1 (setting [8]), 7.4 µM; in the test on HCT-116 (setting [9]), 5.5 µM; in the test with PC14 (setting [10]), 9.1 µM; on SUV39H2, 0.0145 µM.
Regarding `CCOP(=O)(CCN1CCCN(c2ccn3cc(-c4cc(Cl)c(OC)cc4OCCCN(C)C)nc3c2)CC1)OCC` [Example 214, diethyl (2-(4-(2-(5-chloro-2-(3-(dimethylamino)propoxy)-4-methoxyphenyl)-imidazo[1,2-a]pyridin-7-yl)-1,4-diazepan-1-yl)ethyl)phosphonate], the half-maximal inhibitory concentration (IC50) in the test on A549 (setting [6]) amounted to 10 µM; in the test with CCD-18Co (setting [7]), 10 µM; in the test with HFL1 (setting [8]), 10 µM; in the test with HCT-116 (setting [9]) it was 10 µM; in the test on PC14 (setting [10]), 10 µM; at SUV39H2 it was 0.0106 µM.
As for `CCS(=O)(=O)N1CCCN(c2ccn3cc(-c4cc(Cl)c(OC)cc4OCCCN(C)C)nc3c2)CC1` [Example 215, 3-(4-chloro-2-(7-(4-(ethylsulfonyl)-1,4-diazepan-1-yl)imidazo[1,2-a]pyridin-2-yl)-5-methoxyphenoxy)-N,N-dimethylpropan-1-amine], the IC50 in the test with A549 (setting [6]) is 10 µM; in the test with CCD-18Co (setting [7]), 7.4 µM; with HFL1 (setting [8]), 6.4 µM; with HCT-116 (setting [9]) it was 10 µM; with PC14 (setting [10]), 6.5 µM; at SUV39H2, 0.0135 µM.
In the case of `COc1cc(OCCCN(C)C)c(-c2cn3ccc(N4CCCN(S(=O)(=O)N(C)C)CC4)cc3n2)cc1Cl` [Example 216, 4-(2-{5-chloro-2-[3-(dimethylamino)propoxy]-4-methoxyphenyl}-imidazo[1,2-a]pyridin-7-yl)-N,N-dimethyl-1,4-diazepane-1-sulfonamide], the IC50 in the test on A549 (setting [6]) worked out at 1.9 µM; in the test with CCD-18Co (setting [7]), 2.7 µM; in the test on HFL1 (setting [8]), 1.5 µM; in the test with HCT-116 (setting [9]) it was 3.3 µM; in the test with PC14 (setting [10]), 1.6 µM; at SUV39H2, 0.0194 µM.
As for `COc1cc(OC)c(-c2cn3cc(Br)c(N4CCNCC4)cc3n2)cc1Cl` [Example 217, 6-bromo-2-(5-chloro-2,4-dimethoxyphenyl)-7-(piperazin-1-yl)-imidazo[1,2-a]pyridine], the IC50 was 7.2 µM in the test on A549 (setting [6]); 4.3 µM in the test on CCD-18Co (setting [7]); 4.9 µM in the test with HFL1 (setting [8]); 5.5 µM with HCT-116 (setting [9]); 3.4 µM in the test on PC14 (setting [10]); 0.0416 µM at SUV39H2.
Regarding `COc1cc(OC)c(-c2cn3ccc(N4CCN(P(=O)(OC)OC)CC4)nc3n2)cc1Cl` [Example 218, dimethyl (4-(2-(5-chloro-2,4-dimethoxyphenyl)imidazo[1,2-a]pyrimidin-7-yl)piperazin-1-yl)phosphonate], the IC50 in the test with A549 (A549, 72 h) stood at 6.5 µM; in the test on CCD-18Co (CCD-18Co, 72 h), 10 µM; with HFL1 (HFL1, 72 h), 10 µM; with HCT-116 (HCT-116, 72 h), 5.6 µM; in the test on PC14 (PC-14, 72 h) it was 3.4 µM; on SUV39H2, 0.0111 µM.
`CCOP(=O)(CCN1CCN(c2ccn3cc(-c4cc(Cl)c(OC)cc4OCCCN(C)C)nc3c2)CC1)OCC` [Example 219, diethyl (2-(4-(2-(5-chloro-2-(3-(dimethylamino)propoxy)-4-methoxyphenyl)-imidazo[1,2-a]pyridin-7-yl)piperazin-1-yl)ethyl)phosphonate]: the IC50 in the test with A549 (setting [6]) came out at 10 µM; with CCD-18Co (setting [7]) it was 10 µM; with HFL1 (setting [8]) it was 7.4 µM; in the test on HCT-116 (setting [9]) it was 10 µM; in the test on PC14 (setting [10]), 7.6 µM; on SUV39H2, 0.0201 µM.
As for `COc1cc(OC)c(-c2cn3cc(Br)c(N4CCNCC4)nc3n2)cc1Cl` [Example 220, 6-bromo-2-(5-chloro-2,4-dimethoxyphenyl)-7-(piperazin-1-yl)imidazo[1,2-a]pyrimidine], the IC50 with A549 (setting [6]) turned out to be 2.6 µM; in the test on CCD-18Co (setting [7]), 3.1 µM; with HFL1 (setting [8]), 3.1 µM; in the test with HCT-116 (setting [9]), 2.4 µM; in the test with PC14 (setting [10]) it was 2.4 µM; at SUV39H2, 0.0262 µM.
`COc1cc(OC)c(-c2cn3cc(NCCN)c(N4CCN(C(=O)OC(C)(C)C)CC4)nc3n2)cc1Cl` [Example 221, tert-butyl 4-(6-((2-aminoethyl)amino)-2-(5-chloro-2,4-dimethoxyphenyl)imidazo[1,2-a]pyrimidin-7-yl)piperazine-1-carboxylate]: the IC50 stood at 10 µM with A549 (setting [6]); 5.6 µM in the test with CCD-18Co (setting [7]); 4.9 µM with HFL1 (setting [8]); 5.4 µM in the test on HCT-116 (setting [9]); 9.5 µM with PC14 (setting [10]); 0.0118 µM on SUV39H2.
In the case of `COc1cc(OC)c(-c2cn3cc(NCCN)c(N4CCN(S(=O)(=O)C5CC5)CC4)nc3n2)cc1Cl` [Example 222, N^1-(2-(5-chloro-2,4-dimethoxyphenyl)-7-(4-(cyclopropylsulfonyl)-piperazin-1-yl)imidazo[1,2-a]pyrimidin-6-yl)ethane-1,2-diamine], the IC50 amounted to 10 µM in the test on A549 (setting [6]); 10 µM with CCD-18Co (setting [7]); 10 µM in the test with HFL1 (setting [8]); 10 µM in the test with HCT-116 (setting [9]); 10 µM in the test with PC14 (setting [10]); 0.00597 µM at SUV39H2.
`COc1cc(OC)c(-c2cn3cc(NCCN)c(N4CCNCC4)nc3n2)cc1Cl` [Example 223, N^1-(2-(5-chloro-2,4-dimethoxy-phenyl)-7-(piperazin-1-yl)imidazo[1,2-a]pyrimidin-6-yl)ethane-1,2-diamine]: the IC50 in the test on A549 (setting [6]) was 10 µM; with CCD-18Co (setting [7]), 10 µM; in the test with HFL1 (setting [8]), 10 µM; in the test with HCT-116 (setting [9]), 10 µM; in the test on PC14 (setting [10]) it was 10 µM; at SUV39H2, 0.00866 µM.

(Values after patent US10508109B2 (priority 2015, dated 2019).)
